Data on three molecules can be found in ChEMBL document CHEMBL6127124, “Structure-Activity Relationships and Discovery of (S)-5-(tert-Butyl)-11-(difluoromethoxy)-9-methoxy-2-oxo-1,2,5,6-tetrahydropyrido[2',1':2,3]imidazo[4,5-h]quinoline-3-carboxylic Acid (AB-161), a Novel Orally Available and Liver-Centric HBV RNA Destabilizer” (J Med Chem, 2024).

In general, Kp refers to the ratio of the level in a tissue or fluid to that in plasma or blood. For orientation: IC50 means the concentration that inhibits the measured activity by half. Lower therefore signals higher potency.

Data set [1] can be described thus: Metabolic stability in CD-1 mouse liver microsomes assessed as clearance at 0.3 uM preincubated for 5 mins followed by NADPH addition measured upto 60 mins by LC-MS/MS analysis. Type of data set: ADME, Microsome. The conditions noted are these: time < 65 min, read-out: CLH.
The nature of data set [2]: Metabolic stability in Beagle dog liver microsomes assessed as clearance at 0.3 uM preincubated for 5 mins followed by NADPH addition measured upto 60 mins by LC-MS/MS analysis. The conditions noted are these: read-out: CLH. Type of data set: ADME, Canis lupus familiaris, Microsome. (Microsomes from liver hold many membrane-bound enzymes, among them those of drug oxidation.)

Data set [3] is described as follows: Ratio of total drug concentration in liver to plasma in CD-1 mouse at 10 mg/kg, po measured for 12 hrs by LC-MS/MS analysis. Particulars: liver and plasma. It is filed as ADME, organism-based.
Data set [4] deals with Hepatitis B virus. Put plainly: Antiviral activity against HBV genotype D in immuno-competent C57BL/6 mouse model of chronic HBV assessed as log10 reduction in HBsAg production at 3 mg/kg, po qd for 7 days measured 24 hrs post-last dose by EIA (reference value: 0.67). Type of data set: functional. Particulars: time 8 day.
For data set [5], the system named is Hepatitis B virus. Put plainly: Antiviral activity against HBV genotype D in immuno-competent C57BL/6 mouse model of chronic HBV assessed as log10 reduction in HBsAg production at 10 mg/kg, po qd for 7 days measured 24 hrs post-last dose by EIA (reference value: 0.98). The conditions noted are these: time 8 day. It is filed as functional.
A short description of data set [6]: Drug concentration in Sprague-Dawley rat plasma at 5 mg/kg, po measured for 24 hrs by LC-MS/MS analysis. Type of data set: ADME, organism-based. The conditions noted are these: read-out: Ct.
Data set [7] can be described thus: Ratio of total drug concentration in liver to plasma in CD-1 mouse at 0.2 mg/kg, po measured for 24 hrs by LC-MS/MS analysis. The conditions noted are these: CD-1, mouse, liver and plasma. Type of data set: ADME, organism-based.
Data set [8] is described as follows: Drug concentration in CD-1 mouse kidney at 10 mg/kg, po measured for 24 hrs by LC-MS/MS analysis. Type of data set: ADME, organism-based. The conditions noted are these: read-out: Ct.
Data set [9] can be described thus: Ratio of drug concentration in kidney to plasma of CD-1 mouse at 10 mg/kg, po measured for 24 hrs by LC-MS/MS analysis. Type of data set: ADME, organism-based. Particulars: kidney and plasma.
A short description of data set [10]: Drug concentration in CD-1 mouse heart at 10 mg/kg, po measured for 24 hrs by LC-MS/MS analysis. It is filed as ADME, organism-based. Particulars: read-out: Ct.
For a further data set, the target named is Cytochrome P450 2C9 (Homo sapiens, UniProt P11712). Put plainly: Inhibition of CYP2C9 in human liver microsomes using diclofenac as substrate preincubated for 30 min followed by NADPH addition measured after 12 mins by LC-MS/MS analysis. It is filed as ADME, Microsome.
Sequence of Cytochrome P450 2C9 (P11712 whole entry): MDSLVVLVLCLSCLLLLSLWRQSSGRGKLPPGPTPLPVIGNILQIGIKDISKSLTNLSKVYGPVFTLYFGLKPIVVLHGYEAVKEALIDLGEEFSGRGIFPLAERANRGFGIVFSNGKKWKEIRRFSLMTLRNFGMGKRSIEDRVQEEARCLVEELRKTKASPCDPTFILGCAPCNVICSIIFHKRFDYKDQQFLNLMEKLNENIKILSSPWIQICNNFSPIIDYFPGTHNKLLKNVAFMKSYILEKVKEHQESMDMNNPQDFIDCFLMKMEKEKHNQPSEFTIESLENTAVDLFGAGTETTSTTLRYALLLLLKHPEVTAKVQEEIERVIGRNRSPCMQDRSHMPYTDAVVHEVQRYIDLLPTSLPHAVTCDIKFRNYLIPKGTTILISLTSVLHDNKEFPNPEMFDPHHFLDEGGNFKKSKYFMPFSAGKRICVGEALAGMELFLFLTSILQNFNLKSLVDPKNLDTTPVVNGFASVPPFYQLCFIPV
Data set [11] in a line: Selectivity ratio of drug concentration in liver in CD-1 mouse at 0.2 mg/kg, po measured for 12 hrs to EC90 for antiviral activity against HBV infected in human HepG2.2.15 cells assessed as reduction in HBsAg level. It is filed as ADME, organism-based. The conditions noted are these: in vivo.
Data set [12] is described as follows: Ratio of total drug concentration in liver to plasma in CD-1 mouse at 0.2 mg/kg, po measured for 12 hrs by LC-MS/MS analysis. It is filed as ADME, organism-based. The conditions noted are these: liver and plasma.
A short description of data set [13]: Selectivity ratio of drug concentration in liver in CD-1 mouse at 0.2 mg/kg, po measured for 24 hrs to EC90 for antiviral activity against HBV infected in human HepG2.2.15 cells assessed as reduction in HBsAg level. It is filed as ADME, organism-based. The conditions noted are these: in vivo.
Another data set deals with T1, Cytochrome P450 1A2 (Homo sapiens, UniProt P05177).
T1 sequence (P05177 whole entry): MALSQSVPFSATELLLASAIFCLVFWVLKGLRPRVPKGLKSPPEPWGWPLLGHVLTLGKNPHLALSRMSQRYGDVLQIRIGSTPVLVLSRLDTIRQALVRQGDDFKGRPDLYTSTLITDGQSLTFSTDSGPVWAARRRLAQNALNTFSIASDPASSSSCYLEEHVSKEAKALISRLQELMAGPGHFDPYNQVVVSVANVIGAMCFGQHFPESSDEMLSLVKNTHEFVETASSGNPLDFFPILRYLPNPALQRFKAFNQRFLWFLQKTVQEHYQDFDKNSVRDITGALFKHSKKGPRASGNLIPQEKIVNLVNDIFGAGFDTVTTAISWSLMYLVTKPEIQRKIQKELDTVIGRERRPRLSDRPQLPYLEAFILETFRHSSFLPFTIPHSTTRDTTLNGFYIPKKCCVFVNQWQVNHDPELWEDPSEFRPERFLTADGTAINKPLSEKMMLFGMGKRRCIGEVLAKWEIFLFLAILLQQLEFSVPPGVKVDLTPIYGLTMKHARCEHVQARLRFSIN
Put plainly: Inhibition of CYP1A2 in human liver microsomes using phenacetin as substrate preincubated for 30 min followed by NADPH addition measured after 12 mins by LC-MS/MS analysis. It is filed as ADME, Microsome.

In data set [14] the target is T2, Cytochrome P450 3A4 (Homo sapiens, UniProt P08684). Put plainly: Inhibition of CYP3A4 in human liver microsomes using testosterone as substrate preincubated for 30 min followed by NADPH addition measured after 12 mins by LC-MS/MS analysis. It is filed as ADME, Microsome.
T2 sequence (P08684 whole entry): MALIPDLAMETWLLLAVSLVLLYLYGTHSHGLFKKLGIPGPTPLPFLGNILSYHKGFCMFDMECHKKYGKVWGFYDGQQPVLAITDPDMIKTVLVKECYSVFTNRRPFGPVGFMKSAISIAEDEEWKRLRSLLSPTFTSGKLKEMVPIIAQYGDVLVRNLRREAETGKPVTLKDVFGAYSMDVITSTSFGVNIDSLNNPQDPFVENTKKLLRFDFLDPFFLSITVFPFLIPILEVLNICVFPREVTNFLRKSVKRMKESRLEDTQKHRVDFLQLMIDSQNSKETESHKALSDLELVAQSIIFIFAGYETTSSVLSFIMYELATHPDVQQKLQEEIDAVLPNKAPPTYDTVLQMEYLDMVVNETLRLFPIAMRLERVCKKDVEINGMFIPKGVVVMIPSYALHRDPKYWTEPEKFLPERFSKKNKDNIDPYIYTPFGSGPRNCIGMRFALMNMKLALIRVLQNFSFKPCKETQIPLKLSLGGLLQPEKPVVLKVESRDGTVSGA
Data set [15] in a line: Drug concentration in CD-1 mouse lung at 10 mg/kg, po measured for 24 hrs by LC-MS/MS analysis. The conditions noted are these: read-out: Ct. Type of data set: ADME, organism-based.
Data set [16] is described as follows: Drug concentration in Sprague-Dawley rat heart at 5 mg/kg, po measured for 24 hrs by LC-MS/MS analysis. Type of data set: ADME, organism-based.
A short description of data set [17]: Ratio of drug concentration in lung to plasma of Sprague-Dawley rat at 5 mg/kg, po measured for 24 hrs by LC-MS/MS analysis. It is filed as ADME, organism-based.
Data set [18] can be described thus: Ratio of drug concentration in kidney to plasma of Sprague-Dawley rat at 5 mg/kg, po measured for 24 hrs by LC-MS/MS analysis. Particulars: kidney and plasma. Type of data set: ADME, organism-based.
The nature of data set [19]: Drug concentration in Sprague-Dawley rat kidney at 5 mg/kg, po measured for 24 hrs by LC-MS/MS analysis. Type of data set: ADME, organism-based. The conditions noted are these: read-out: Ct.
For data set [20], the system named is Hepatitis B virus. Put plainly: Antiviral activity against HBV genotype D in immuno-competent C57BL/6 mouse model of chronic HBV assessed as log10 reduction in serum HBsAg production at 0.3 mg/kg, po qd for 14 days measured 24 hrs post-last dose by EIA relative to control. Type of data set: functional. The conditions noted are these: time 15 day.
The nature of data set [21]: Drug concentration in Sprague-Dawley rat lung at 5 mg/kg, po measured for 24 hrs by LC-MS/MS analysis. It is filed as ADME, organism-based.
A short description of data set [22]: Drug concentration in Sprague-Dawley rat liver at 5 mg/kg, po measured for 24 hrs by LC-MS/MS analysis. Type of data set: ADME, organism-based. The conditions noted are these: read-out: Ct.
The target in a further data set is Cytochrome P450 2D6 (Homo sapiens, UniProt P10635). Put plainly: Inhibition of CYP2D6 in human liver microsomes using dextromethorphan as substrate preincubated for 30 min followed by NADPH addition measured after 12 mins by LC-MS/MS analysis. Type of data set: ADME, Microsome.
Sequence of Cytochrome P450 2D6 (P10635 whole entry): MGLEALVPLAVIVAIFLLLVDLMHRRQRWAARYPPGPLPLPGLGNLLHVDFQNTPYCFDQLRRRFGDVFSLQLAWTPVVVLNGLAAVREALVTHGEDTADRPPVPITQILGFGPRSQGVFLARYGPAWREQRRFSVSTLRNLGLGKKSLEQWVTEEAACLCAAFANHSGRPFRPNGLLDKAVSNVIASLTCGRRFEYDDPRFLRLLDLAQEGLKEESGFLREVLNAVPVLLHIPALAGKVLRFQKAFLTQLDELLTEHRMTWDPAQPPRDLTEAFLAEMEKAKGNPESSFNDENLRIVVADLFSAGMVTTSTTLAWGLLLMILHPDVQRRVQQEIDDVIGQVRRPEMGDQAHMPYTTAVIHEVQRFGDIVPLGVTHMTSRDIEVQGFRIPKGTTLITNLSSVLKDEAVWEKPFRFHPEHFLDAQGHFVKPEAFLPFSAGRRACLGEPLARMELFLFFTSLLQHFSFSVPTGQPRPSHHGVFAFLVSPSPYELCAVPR
In data set [23] the test system is Hepatitis B virus. Put plainly: Antiviral activity against HBV genotype D in immuno-competent C57BL/6 mouse model of chronic HBV assessed as log10 reduction in serum HBsAg production at 30 mg/kg, po qd for 14 days measured 24 hrs post-last dose by EIA relative to control. The conditions noted are these: time 15 day. It is filed as functional.
In data set [24] the target is T2, Cytochrome P450 3A4. Put plainly: Inhibition of CYP3A4 in human liver microsomes using midazolam as substrate preincubated for 30 min followed by NADPH addition measured after 12 mins by LC-MS/MS analysis. Type of data set: ADME, Microsome.
Data set [25] can be described thus: Ratio of drug concentration in lung to plasma of CD-1 mouse at 10 mg/kg, po measured for 24 hrs by LC-MS/MS analysis. The conditions noted are these: lung and plasma. It is filed as ADME, organism-based.
Setting [26] is: in vivo, po, 5 mg/kg, 24 h, BLD = below limit of detection.

As for `COCCCOc1cc2c(nc1OC)-c1cc(=O)c(C(=O)O)cn1[C@H](C(C)C)C2`, the values for the microsomal CLint at 0.3 µM in data set [1] and in data set [2] were 3 µL/min/mg and 4 µL/min/mg, respectively. Moreover, the Kp at 12 h in data set [3] was 6. The “log(activity)” value with Hepatitis B virus [4] is reported as 0.68; in the data set on Hepatitis B virus [5], 0.7.
As for `COc1cc(OC(F)F)c2nc3c(n2c1)C[C@@H](C(C)(C)C)c1cc(C(=O)O)c(=O)[nH]c1-3`, the concentration at 24 h was determined as 0.7 ng/g in data set [6]; 71 ng/g in data set [8]; 15 ng/g in data set [10]; 25 ng/g in data set [15]; 5.5 ng/g in [19]; 13900 ng/g in data set [22]. For the same molecule, the Kp at 24 h in data set [7] was 116; in data set [9] it was 1.3; in data set [18], 7.9; in [25] it was 0.4. In addition, the IC50 at Cytochrome P450 2C9 was 22 µM; on Cytochrome P450 1A2, greater than 25 µM; at Cytochrome P450 3A4 [14], greater than 25 µM; against Cytochrome P450 2D6 it was greater than 25 µM; at Cytochrome P450 3A4 [24], greater than 25 µM. For the same molecule, the Ratio in data set [11] is listed as 166; in data set [13] it was 40; in [17] (setting [26]), “Bld”. The Kp at 12 h turned out to be 284 in data set [12] and 109 in [3]. In addition, the microsomal CLint at 0.3 µM in data set [1] was 7 µL/min/mg; in data set [2], 6 µL/min/mg. Also, the Ct result in data set [16] (setting [26]) and in data set [21] (setting [26]) was “Bld” in each case. The “log(activity)” value in the data set with Hepatitis B virus [20] is 0.13; in the data set on Hepatitis B virus [4], 0.8; in the data set with Hepatitis B virus [23] it was 0.94; in the data set on Hepatitis B virus [5], 0.67.
With `CC(C)(C)[C@@H]1Cc2c(nc3c(C(F)(F)F)cc(C4CC4)cn23)-c2[nH]c(=O)c(C(=O)O)cc21`, the concentration at 24 h in data set [6] was 6.7 ng/g; in data set [8] it was 23 ng/g; in data set [10] it was 15 ng/g; in data set [15] it was 35 ng/g; in [16] (Sprague-Dawley, heart, read-out: Ct) it was 1.3 ng/g; in [19], 6 ng/g. Further, the concentration at 24 h in [21] (Sprague-Dawley, lung, read-out: Ct) was 5 ng/g; in data set [22], 6140 ng/g. Also, the Kp at 24 h in data set [7] came out at 97; in data set [9] it was 0.3; in [17] (Sprague-Dawley, lung and plasma), 0.7; in data set [18] it was 0.9; in data set [25], 0.4. Moreover, the IC50 against Cytochrome P450 2C9 was 21 µM; against Cytochrome P450 1A2, greater than 25 µM; against Cytochrome P450 3A4 [14] it was greater than 25 µM; at Cytochrome P450 2D6, greater than 25 µM; at Cytochrome P450 3A4 [24], greater than 25 µM. In addition, the Ratio came out at 572 in [11] and 51 in [13]. The Kp at 12 h in [12] was 120; in [3], 56. Further, in data set [1], the microsomal CLint at 0.3 µM is 1 µL/min/mg. Further, the “log(activity)” value in the data set with Hepatitis B virus [20] is 0.35; in the data set on Hepatitis B virus [23], 1.35.
